Here are results for five compounds from patent US20050038093A1, “Treating diabetic retinopathy with angiotensin II receptor blockers” (Boehringer Ingelheim International GmbH, priority 2003, published 2005).

The conditions of experiment [1]: IDNT study (Lewis et al, 2001); cited from earlier work.
Experiment [2] has as its system pericytes isolated from bovine retina. Briefly: Measurement of reactive oxygen species in pericytes. It is filed as cell-based. The note with it: for inhibition of angiotensin II-induced increase in the generation of reactive oxygen species in pericytes: 10^-7 M telmisartan, 10^-7 or 10^-6 M angiotensin II. The procedure:
(§1) Pericytes were isolated from bovine retina and maintained in Dulbecco's Eagle's medium supplemented with 20% of fetal bovine serum (FBS) as described in Yamagishi et al, Circulation 87:1969, 1993.
Angiotensin II treatment was carried out in medium containing 2% FBS. Pericytes were treated with or without 10^−7 or 10^−6 M angiotensin II in the presence or absence of 10^−7 M telmisartan for 24 hours. Then the intracellular formation of reactive oxygen species was detected as described in Yamagishi et al, A J Biol Chem 276:25096, 2001 by using the fluorescent probe CM-H2DCFDA (Molecular Probes Inc, Eugene, Oreg.).

The subject of another experiment is VEGF mRNA. Briefly: Quantitative reverse transcription PCR of VEGF mRNA in pericytes. It counts as cell-based, bovine. The note with it: 10^-7 M angiotensin II, 4 hours; for inhibition of angiotensin II-induced up-regulation of VEGF mRNA levels in pericytes: 10^-7 M telmisartan or 1 mM NAC. The protocol: Sequences and primers for detecting VEGF and β-actin mRNAs are described in Yamagishi et al, J Biol Chem 272:8723, 1997.
(§2) Poly(A)^+ RNAs were isolated from cells treated with or without 10^−7 M angiotensin II in the presence or absence of 10^−7 M telmisartan or 1 mM NAC for 4 hours, and analyzed by quantitative reverse transcription PCR (RT-PCR) as described in Yamagishi et al, Diabetologia 41:1435, 1998. The amounts of poly(A)^+ RNA templates (about 30 ng) and cell cycle numbers for amplification (28 cycles for VEGF gene and 22 cycles for β-actin gene) were chosen in quantitative ranges were reactions proceeded linearly, which had been determined by plotting signal intensities as functions of the template amounts and cell cycle numbers as described in Yamagishi et al, J Biol Chem 277:20309, 2002.
It has been reported that there exist five alternatively spliced products from the single VEGF gene. They are designated as VEGF121, VEGF145, VEGF165 VEGF189, and VEGF206. Since Northern blot analysis can not clearly discriminate these five mRNA products, we employed a more sensitive semi-quantitative RT-PCR technique as described in Okamoto et al, FASEB J 16:1928, 2002. In these experiments, cDNA products of 486 and 618 base pairs length are amplified from mRNAs for VEGF121 and VEGF165, respectively. […] The VEGF mRNA level was about 1.5 fold higher than the basal level when exposed to 10^−7 M angiotensin II.

The next experiment deals with PDGF-B mRNA. Briefly: Quantitative reverse transcription PCR of PDGF-B mRNA in cultured retinal pericytes. It is filed as cell-based, bovine. The note with it: 10^-7 M angiotensin II, 4 hours; for inhibition of angiotensin II induced up-regulation of PDGF mRNA levels: 10^-7 M telmisartan or 1 mM NAC. The procedure:
as §2, with “To investigate the effects of angiotensin II on PDGF-B gene expression in cultured retinal pericytes, poly(A)^+” for “Poly(A)^+”, “RT-PCR” for “quantitative reverse transcription PCR (RT-PCR)”, “Kidney Int 63:464, 2003.” for “Diabetologia 41:1435, 1998.”, “PDGF-B” for “VEGF”, “2002. Sequences of primers for detecting bovine β-actin mRNAs were the same as described in Okamoto et al, FASEB J 16:1928, 2002.” for “2002.”

For experiment [3] the following is noted: EUCLID study, cited from earlier work.
In the next experiment the test system is pericytes. Briefly: Measurement of [3H]thymidine incorporation in pericytes. It counts as cell-based, bovine. The note with it: 10^-7 M angiotensin, 24 hours. The procedure:
as §1
Pericytes were treated with or without 10^−7 M angiotensin in the presence or absence of 1 mM N-acetylcystein (NAC) for 24 hours, and then [^3H]thymidine incorporation in cells was determined as described in Yamagishi et al, FEBS Lett 384:103, 1996.

Consider `CCCCC1=NC2(CCCC2)C(=O)N1Cc1ccc(-c2ccccc2-c2nnn[nH]2)cc1` [irbesartan], for which, in experiment [1], the “protection against the progression of nephropathy due to type II diabetes” value is listed as “effective”.

For the compound `CCCc1nc2c(C)cc(-c3nc4ccccc4n3C)cc2n1Cc1ccc(-c2ccccc2C(=O)O)cc1` [telmisartan], in experiment [2] (10^-7 M telmisartan without angiotensin II, 24 hours), the “effect of compound alone on generation of reactive oxygen species” value is given as “did not affect”. The “inhibition of angiotensin II-induced increase in the generation of reactive oxygen species in pericytes” value is recorded as “inhibit” in experiment [2] (24 hours) and “completely inhibit” in experiment [2] (24 hours, listed as Telmisartan). The “inhibition of angiotensin II-induced up-regulation of VEGF mRNA levels in pericytes” value in the experiment on VEGF mRNA is reported as “completely inhibit”. For the same compound, the “inhibition of angiotensin II induced up-regulation of PDGF mRNA levels” value in the experiment with PDGF-B mRNA is given as “significantly inhibit”.

Regarding `NCCCC[C@H](N[C@@H](CCc1ccccc1)C(=O)O)C(=O)N1CCC[C@H]1C(=O)O` [lisinopril], the “risk of progression to proliferative retinopathy” value in experiment [3] is given as “significantly reduced”. In addition, the “reduction of the risk of progression of retinopathy” value in experiment [3] (retinopathy not a primary endpoint) is reported as “approximately 50%”.

On to “angiotensin II (DRVYIHPF; Angiotensin-2; UniProt P01019 25-32, looked up) [stimulus used on pericytes]”, for which the “increase of intracellular generation of reactive oxygen species” value in experiment [2] (10^-6 M angiotensin II, 24 hours, medium with 2% FBS) was “about 1.3 fold”. Further, in the experiment with pericytes, the “effect on DNA synthesis in pericytes ([3H]thymidine incorporation)” value was “significantly inhibited”. For the same compound, the “VEGF mRNA level relative to basal level” value in the experiment with VEGF mRNA is reported as “about 1.5 fold”. For the same compound, in the experiment with PDGF-B mRNA, the “PDGF-B mRNA level relative to basal level” value was “about 5 fold”.

On to `CC(=O)N[C@@H](CS)C(=O)O` [NAC, N-acetylcystein], for which, in experiment [2] (added during treatment of pericytes with angiotensin II), the “reversal of angiotensin II-induced increase in generation of reactive oxygen species by antioxidant” value is “reverses the increase”. Further, the “prevention of angiotensin II-induced decrease in DNA synthesis in pericytes” value with pericytes (1 mM NAC) was “significantly prevented”. In addition, the “inhibition of angiotensin II-induced up-regulation of VEGF mRNA levels in pericytes” value in the experiment on VEGF mRNA is “completely inhibit”. The “inhibition of angiotensin II induced up-regulation of PDGF mRNA levels” value in the experiment with PDGF-B mRNA is “significantly inhibit”.
